Test results from PMC9088392 (RSC Advances, 2022).

Molecular target: T1, PaER (Ogataea polymorpha, UniProt A0A1B7SQN2)
T1 sequence (A0A1B7SQN2 1-402): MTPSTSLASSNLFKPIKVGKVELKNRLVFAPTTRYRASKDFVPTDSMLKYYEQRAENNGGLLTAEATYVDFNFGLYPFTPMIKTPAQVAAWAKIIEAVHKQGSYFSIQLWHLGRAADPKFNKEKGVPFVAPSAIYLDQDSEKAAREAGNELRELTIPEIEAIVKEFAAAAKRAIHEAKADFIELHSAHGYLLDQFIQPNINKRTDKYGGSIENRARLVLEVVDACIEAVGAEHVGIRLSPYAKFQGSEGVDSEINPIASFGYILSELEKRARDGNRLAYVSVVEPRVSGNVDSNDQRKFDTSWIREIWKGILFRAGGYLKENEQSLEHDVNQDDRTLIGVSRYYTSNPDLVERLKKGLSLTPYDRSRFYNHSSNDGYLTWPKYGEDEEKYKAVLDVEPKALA
Assay: flavin released from purified enzyme by heat, RP-HPLC
Type: binding
Conditions: non-covalent flavin co-purified with the enzyme

Cc1cc2nc3c(=O)[nH]c(=O)nc-3n(C[C@H](O)[C@H](O)[C@H](O)COP(=O)(O)O)c2cc1C [FMN]
flavin released from purified enzyme by heat, RP-HPLC: yellow color as expected for FMN-containing protein and was also confirmed by HPLC
